Experimental data from patent US11458138B2 (Novartis AG, priority 2017, dated 2022).

How the values were obtained:
[1] = test system: Phospho-YAP (SER127) in HaCaT cells; experiment: pYAP HTRF Assay (HaCaT Cells); assay type: cell-based, human; conditions: Homo sapiens, 2 hours
Outline: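 HaCaT cells at 5500 cells/well were cultured 48 hours at 37° C, then treated with compound for 2 hours. Phospho-YAP (Ser127) was detected by HTRF after an overnight (20 hrs) room-temperature incubation, read as the 665 nm/620 nm ratio.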

[2] = test system: Phospho-YAP (Ser127) in JHH-5 cells; experiment: pYAP HTRF Assay (JHH-5 cells); assay type: cell-based; conditions: 2 hours
Description: Briefly, JHH-5 cells are suspended at 0.48×10^6 cells/ml in William's E medium without phenol-red (Thermo Fisher Scientific Gibco catalog number A1217601) supplemented with 10% (v/v) heat-inactivated fetal bovine serum (Thermo Fisher Scientific Gibco catalog number 16140071) and penicillin-streptomycin at 100 U/ml each (Thermo Fisher Scientific Gibco catalog number 15140122). Cells are dispensed into 384well clear bottom culture plates (50 ul/well, at 24000 cells per well, Greiner catalog number 781091), and incubated for 24 hours in a cell culture incubator at 37° C. Test compounds are transferred into culture plates containing JHH-5 cells using an Echo550 (Labcyte) acoustic dispenser (50 nl/well), followed by incubation for 2 hours at 37° C. Lysis buffer (part of CisBio kit catalog number 64YAPPEI) is added to the assay plates as a four-fold concentrate (corresponding to 16 ul/well) and incubated for 30 minutes at room temperature with agitation. Lysate is transferred from culture plates into white low-volume 384well assay plates (12 ul/well, Greiner catalog number 784075), followed by the addition of 3 ul/well of detection antibodies (part of CisBio kit catalog number 64YAPPEI: 1:40 dilution of each pYAP d2 antibody and pYAP cryptate antibody stocks). The plates are sealed and incubated overnight (18 hours) at room temperature protected from light. Plates are read on an EnVision plate reader (Perkin Elmer) at emission wavelengths of 665 nm and 620 nm. The HTRF signal ratio x per well is calculated as [x=Signal(665 nm)/Signal(620 nm)×10000] as specified in the manufacturer's protocol.

[3] = test system: YAP nuclear translocation in HaCaT cells; experiment: YAP Translocation Assay (HaCaT Cells); assay type: cell-based, human; conditions: Homo sapiens, 24 hours
Outline: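 HaCaT cells (20,000/well) in DMEM + 10% FBS were plated overnight at 37° C, then exposed to compound for 24 h at 37° C. Cells were fixed with PFA, permeabilized with 0.1% Triton/1.5% BSA and imaged by high-content imaging.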

LATS1 = LATS1 (Homo sapiens (Human), UniProt O95835); experiment: LATS1 biochemical assay (Table 1A, Compound Examples 1-290; method in the earlier part)
Chain of LATS1 (O95835 whole entry, looked up): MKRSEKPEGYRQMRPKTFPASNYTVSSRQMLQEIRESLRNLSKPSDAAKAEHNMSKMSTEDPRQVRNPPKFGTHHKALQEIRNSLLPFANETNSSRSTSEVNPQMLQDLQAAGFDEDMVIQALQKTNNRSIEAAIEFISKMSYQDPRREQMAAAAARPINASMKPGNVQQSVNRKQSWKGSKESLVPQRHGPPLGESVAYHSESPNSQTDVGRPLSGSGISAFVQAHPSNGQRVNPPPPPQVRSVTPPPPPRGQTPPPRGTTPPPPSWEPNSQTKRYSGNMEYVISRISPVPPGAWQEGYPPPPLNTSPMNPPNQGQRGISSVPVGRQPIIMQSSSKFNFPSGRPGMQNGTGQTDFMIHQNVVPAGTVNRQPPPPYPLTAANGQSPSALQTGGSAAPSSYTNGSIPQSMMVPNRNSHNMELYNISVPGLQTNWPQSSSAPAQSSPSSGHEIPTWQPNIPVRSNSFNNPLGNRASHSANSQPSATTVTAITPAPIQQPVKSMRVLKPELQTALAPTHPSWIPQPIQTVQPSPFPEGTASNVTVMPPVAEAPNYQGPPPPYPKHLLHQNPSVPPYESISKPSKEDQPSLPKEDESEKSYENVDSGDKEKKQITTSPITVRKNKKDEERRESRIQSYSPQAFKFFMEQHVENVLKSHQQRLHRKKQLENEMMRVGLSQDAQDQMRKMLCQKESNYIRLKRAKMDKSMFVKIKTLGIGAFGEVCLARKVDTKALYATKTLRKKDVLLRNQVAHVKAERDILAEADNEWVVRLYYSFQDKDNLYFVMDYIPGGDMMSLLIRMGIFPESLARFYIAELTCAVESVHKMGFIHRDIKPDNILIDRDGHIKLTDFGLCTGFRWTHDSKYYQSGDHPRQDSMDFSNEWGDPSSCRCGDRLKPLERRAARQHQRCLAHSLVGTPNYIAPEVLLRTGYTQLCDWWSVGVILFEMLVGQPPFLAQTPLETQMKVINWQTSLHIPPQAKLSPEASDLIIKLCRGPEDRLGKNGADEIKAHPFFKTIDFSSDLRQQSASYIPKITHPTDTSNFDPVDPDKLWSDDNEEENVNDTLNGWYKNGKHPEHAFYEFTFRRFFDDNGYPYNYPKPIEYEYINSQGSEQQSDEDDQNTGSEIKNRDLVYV
Chain of LATS1 (Q7L9L4 whole entry partner, looked up): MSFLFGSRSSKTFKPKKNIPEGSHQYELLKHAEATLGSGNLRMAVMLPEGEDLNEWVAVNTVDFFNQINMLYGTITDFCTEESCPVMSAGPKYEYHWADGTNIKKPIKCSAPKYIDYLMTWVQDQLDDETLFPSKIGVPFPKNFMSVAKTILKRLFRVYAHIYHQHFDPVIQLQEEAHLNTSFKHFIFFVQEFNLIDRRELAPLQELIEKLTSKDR

SMILES | IC50 [1] [nM] | IC50 [2] [µM] | EC50 [3] [µM] | IC50 (LATS1) [nM]
CC(C)(Cc1c[nH]c2ccccc12)Nc1nc(-c2ccncc2)nc2cnccc12 [Example 79, N-[1-(1H-indol-3-yl)-2-methylpropan-2-yl]-2-(pyridin-4-yl)pyrido[3,4-d]pyrimidin-4-amine] | 765 | 2.1 | 3.87 | 11
OCCNc1nc(-c2ccncc2)nc2cnccc12 [Example 85, 2-{[2-(pyridin-4-yl)pyrido[3,4-d]pyrimidin-4-yl]amino}ethan-1-ol] | 31000 | > 10 | 9.81 | 25
CCC(C)(C)Nc1cc(-c2ccncc2F)nc2cnccc12 [Example 281, 2-(3-fluoropyridin-4-yl)-N-(2-methylbutan-2-yl)-1,7-naphthyridin-4-amine] | 656 | 5.9 | 2.89 | 4
CC(C)(C)CC(C)(C)Nc1nc(-c2ccncc2)nc2cnccc12 [Example 72, 2-(pyridin-4-yl)-N-(2,4,4-trimethylpentan-2-yl)pyrido[3,4-d]pyrimidin-4-amine] | 1170 | 4.6 | 3.65 | 4
CC(C)(CN)Nc1nc(-c2ccncc2)nc2cnccc12 [Example 110, N-(1-amino-2-methylpropan-2-yl)-2-(pyridin-4-yl)pyrido[3,4-d]pyrimidin-4-amine] | 2970 | 1.5 | 15.3 | 2
CC(C)(O)C(C)(C)Nc1nc(-c2ccncc2)nc2cnccc12 [Example 71, 2,3-dimethyl-3-{[2-(pyridin-4-yl)pyrido[3,4-d]pyrimidin-4-yl]amino}butan-2-ol] | 26 | > 10 | 1.57 | 4
CCCNc1nc(-c2c[nH]c3ncccc23)nc2cnccc12 [Example 155, N-propyl-2-{1H-pyrrolo[2,3-b]pyridin-3-yl}pyrido[3,4-d]pyrimidin-4-amine] | 1580 | 2.6 | 1.05 | 1
CC(C)(CCO)Nc1nc(-c2ccncc2)nc2cnccc12 [Example 61, 3-methyl-3-{[2-(pyridin-4-yl)pyrido[3,4-d]pyrimidin-4-yl]amino}butan-1-ol] | 141 | 1.4 | 0.517 | 1
CC(C)(CC(=O)O)Nc1nc(-c2ccncc2)nc2cnccc12 [Example 40, 3-methyl-3-{[2-(pyridin-4-yl)pyrido[3,4-d]pyrimidin-4-yl]amino}butanoic acid] | > 10000 | > 10 | > 20 | 328
CN(C)CCC(C)(C)Nc1cc(-c2ccncc2)nc2cnccc12 [Example 265, dimethyl(3-methyl-3-{[2-(pyridin-4-yl)-1,7-naphthyridin-4-yl]amino}butyl)amine] | 22300 | > 10 | > 20 | 8
CCC(C)(C)Nc1nc(-c2ccncc2Cl)nc2cnccc12 [Example 118, 2-(3-chloropyridin-4-yl)-N-(2-methylbutan-2-yl)pyrido[3,4-d]pyrimidin-4-amine] | 2050 | 4 | 5.01 | 5
Cn1nccc1-c1nc(NC(C)(C)C)c2ccncc2n1 [Example 184, N-tert-butyl-2-(1-methyl-1H-pyrazol-5-yl)pyrido[3,4-d]pyrimidin-4-amine] | 2510 | 6.5 | 2.81 | 4
CCN(C)c1nc(-c2ccncc2)nc2cnccc12 [Example 10, N-ethyl-N-methyl-2-(pyridin-4-yl)pyrido[3,4-d]pyrimidin-4-amine] | 2960 | 8.7 | 3.55 | 3
CC(C)(C)Nc1cc(-c2ccncn2)nc2cnccc12 [Example 270, N-tert-butyl-2-(pyrimidin-4-yl)-1,7-naphthyridin-4-amine] | 423 | 0.8 | 0.873 | 2
